Test results as given in patent US10624347B2, “Herbicidal composition and method for controlling weeds” (Sumitomo Chemical Company, Limited, priority 2016, dated 2020).

Legend:
Echinochloa crus-galli = test: Foliar spray on potted weeds at two to three leaf stage in greenhouse, herbicidal effect (Example 101); type: in vivo, inubie (common barnyardgrass; Echinochloa crus-galli); conditions: one week after spray
Method: (§1) A plastic pot was filled with a commercially-available culture soil, and thereto inubie (common barnyardgrass; Echinochloa crus-galli) or akinoenokorogusa (giant foxtail; Setaria faberi) was seeded, and covered with the soil to about 0.5 cm, followed by growing the weeds in a greenhouse. When the weeds grew to two to three leaf stage, a spray liquid of the compound X, a spray liquid of pyroxasulfone, or a spray liquid of the present composition was uniformly sprayed to the whole plants so that the application rate might be a predetermined value. The spray liquid of the present composition was prepared by mixing the spray liquid of the compound X with the spray liquid of pyroxasulfone. The spray liquid of the compound X was prepared by mixing a predetermined amount of the formulation X with deionized water. The spray liquid of pyroxasulfone was prepared by dissolving pyroxasulfone with a 2 wt % solution of TWEEN® (polyoxyethylenesorbitan fatty acid ester, manufactured by MP Biomedicals) in dimethylformamide, followed by mixing with deionized water. After applying the spray liquid, the plants were placed in a greenhouse for a week. A herbicidal effect was evaluated by classifying the effect into 101 stages from 0 (no effect) to 100 (completely dead).
(§2) The expected value of the herbicidal effect in the case of mixed use was calculated from the result of the herbicidal effect in the case of single use of each of the compounds (the value of A or B) according to the formula of Colby ((expected value)=100−(100−A)×(100−B)/100).

Setaria faberi = test: as above; type: in vivo, akinoenokorogusa (giant foxtail; Setaria faberi); conditions: one week after spray
Method: as §1, §2

[1] = Compound X 5 g/ha alone, scale 0 (no effect) to 100 (completely dead)
[2] = Compound X 10 g/ha alone, scale 0 to 100
[3] = pyroxasulfone 10 g/ha alone, scale 0 to 100
[4] = pyroxasulfone 100 g/ha alone, scale 0 to 100

| Structure (SMILES) | Herbicidal effect on Echinochloa crus-galli (observed value) (Echinochloa crus-galli; [1]) | Herbicidal effect on Echinochloa crus-galli (observed value) (Echinochloa crus-galli; [2]) | Herbicidal effect on Setaria faberi (observed value) (Setaria faberi; [1]) | Herbicidal effect on Setaria faberi (observed value) (Setaria faberi; [2]) | Herbicidal effect on Echinochloa crus-galli (observed value) (Echinochloa crus-galli; [3]) | Herbicidal effect on Echinochloa crus-galli (observed value) (Echinochloa crus-galli; [4]) | Herbicidal effect on Setaria faberi (observed value) (Setaria faberi; [3]) | Herbicidal effect on Setaria faberi (observed value) (Setaria faberi; [4]) |
| --- | --- | --- | --- | --- | --- | --- | --- | --- |
| CCOC(=O)COc1ncccc1Oc1cc(-n2c(=O)cc(C(F)(F)F)n(C)c2=O)c(F)cc1Cl [Compound X, ethyl [3-[2-chloro-4-fluoro-5-(1-methyl-6-trifluoromethyl-2,4-dioxo-1,2,3,4-tetrahydropyrimidin-3-yl)phenoxy]-2-pyridyloxy]acetate] | 20 | 35 | 30 | 45 |  |  |  |  |
| Cn1nc(C(F)(F)F)c(CS(=O)(=O)C2=NOC(C)(C)C2)c1OC(F)F [pyroxasulfone] |  |  |  |  | 0 | 0 | 0 | 0 |
